{"source": "paper PMC10498667", "about": "(Chemical Science, 2023)", "key": {"[1]": {"test_system": "human neuroblastoma 5Y cells", "assay": "MTT cytotoxicity assay", "format": "cell-based", "settings": "at up to 100 μM; 24 h; 5Y cells; relative to DMSO", "procedure": "Flavonoid 6 was synthesized following previously reported procedures with modifications.[66–68] […] It should be noted that cell viability was calculated, relative to that of the cells containing an equivalent amount of DMSO.\nCell viability was determined by the MTT assay [MTT = 3-(4,5-dimethylthiazol-2-yl)-2,5-diphenyltetrazolium bromide]. Cells were seeded in a 96-well plate (15,000 cells/100 µL) and treated with the samples {[flavonoid] = 5, 10, 25, 50, and 100 µM (1% v/v DMSO)}. After 24 h incubation, 5Y cells were washed with phosphate buffered saline (PBS; GIBCO). MTT [5 mg/mL in PBS (pH 7.4, GIBCO); 25 µL] was added to each well and the plate was incubated for 4 h at 37 °C. The formazan produced by cells was solubilized using an acidic solution of DMF (pH 4.5, 50% v/v, aq) and sodium dodecyl sulfate (SDS; 20% w/v) overnight at room temperature in the dark. Absorbance was measured at 600 nm by a microplate reader (Molecular Devices). Cell viability, relative to that of the cells containing an equivalent amount of DMSO, was calculated.\nThe measurements were conducted in triplicate. […]"}, "Aβ40": {"biological_target": "T1, Aβ40 (Homo sapiens, UniProt P05067)", "T1 construct": "Ab40 ([…]-; purchased Peptide Institute, Inc. (Osaka, Japan)", "T1 sequence (P05067 672-711 limits assumed)": "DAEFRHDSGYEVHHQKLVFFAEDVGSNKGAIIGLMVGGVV", "assay": "ESI-MS and ESI-MS2 of Aβ40 treated with 6", "settings": "6 200 μM, 3 h", "description": "To identify the modifications of Aβ in both the absence and presence of Cu(II) upon treatment of 6, we carried out the studies employing electrospray ionization mass spectrometry (ESI-MS). In the sample containing metal-free Aβ42 and 6, the addition of +16 Da into the +3-charged Aβ42 monomer, assigned to be the oxidized monomeric Aβ42, was detected (Fig. 7a), while such oxidation was not observed under anaerobic conditions (Fig. S20 ^†). To determine the oxidized amino acid residues in Aβ42, the b fragments generated by collision-induced dissociation were analyzed by tandem MS (ESI-MS^2). As illustrated in Fig. 7b and S21a, ^† the Met35 residue was measured to be the oxidation site in the singly oxidized Aβ42. […] Similar to metal-free Aβ42, the oxidation of Aβ40 at the Met35 residue was monitored by incubation with 6 (Fig. S22a, b and S23a ^†). […]\n2D 1H−15N SOFAST-HMQC NMR Experiments. […] Experimental data were processed with NMRpipe29 and Sparky 3.115.30 The 1H and 15N assignments of 15N-labeled Ab were determined based on the previous results.21,31 The chemical shift perturbation was calculated following the equation (eq 4).32 Note that DdH and DdN represent the alterations in the chemical shifts of 1H and 15N of 15N-labeled Ab, respectively. […]"}}, "data": [{"molecule": "O=c1c(-c2ccc(O)c(O)c2)coc2cc(O)c(O)c(O)c12", "note": "[compound 6, 3-(3,4-dihydroxyphenyl)-5,6,7-trihydroxy-4H-chromen-4-one]", "values": [{"measurement": "cell survival", "setting": "[1]", "value": "> 90", "unit": "%"}, {"measurement": "plausible oxidation sites in singly oxidized Aβ", "setting": "Aβ40; Cu(II)–Aβ40, Cu(II) 100 μM", "value": "His13, His14, and Met35"}, {"measurement": "oxidation site in singly oxidized Aβ", "setting": "Aβ40; metal-free Aβ40 100 μM", "value": "Met35"}]}]}
